Reference: patent US20260223850A1, “SUBSTITUTED PYRROLIDONE COMPOUND, PREPARATION METHOD THEREFOR, COMPOSITION AND APPLICATION THEREOF” (QINGDAO KINGAGROOT CHEMICAL COMPOUND CO., LTD., priority 2023, published 2026)

Key:
Type in all cases: in vivo
Echinochloa crusgalli = assay: Seedling stage sealing experiment for water-seeding; settings: 120 g a.i./ha, 15 days, fresh weight control rate
Text: (§1) The activity level criteria for plant damage (i.e., growth control rate) are as follows: • Level 9: completely dead; • Level 8: growth control rate greater than or equal to 90% and less than 100%; • Level 7: growth control rate greater than or equal to 80% and less than 90%; • Level 6: growth control rate greater than or equal to 70% and less than 80%; • Level 5: growth control rate greater than or equal to 50% and less than 70%; • Level 4: growth control rate greater than or equal to 30% and less than 50%; • Level 3: growth control rate greater than or equal to 20% and less than 30%; • Level 2: growth control rate greater than or equal to 10% and less than 20%; • Level 1: growth control rate less than 10%; • Level 0: no effect.
(§2) The above growth control rates are fresh weight control rates.
(§3) Echinochloa phyllopogon, Digitaria sanguinalis, Huaidao (rice cultivar), etc. were broadcasted on the surface of nutrition bowls filled with soil and fully covered by soil. The foregoing well-prepared nutrition bowls were then placed in a cultivation box with water filled to a suitable height to keep the soil in the nutrition bowls moist. A test compound of the present invention was individually dissolved with acetone, then diluted into solution of a certain concentration using a certain amount of water, and sprayed using a spray tower. The plants were placed on a greenhouse seedbed and cultured for 15 days, and the experimental results were then collected. The compound was applied at 120, 60, 30 and 15 g a.i./ha in triplicate, and the results were averaged.

Huaidao (rice cultivar) = assay: Seedling stage sealing experiment for water-seeding (crop safety); settings: 120 g a.i./ha, 15 days, fresh weight control rate; for Huaidao (rice cultivar) plant damage level: seedling stage sealing; for Huaidao (rice cultivar) plant damage level (growth control rate): spray, seedling stage sealing for water-seeding
Text: as §1, §2, §3

Echinochloa phyllopogon = assay: Seedling stage sealing experiment for water-seeding; settings: 120 g a.i./ha, 15 days, fresh weight control rate
Text: as §1, §2, §3

[1] = spray, seedling stage sealing for water-seeding

| Structure (SMILES) | Echinochloa crusgalli activity level (growth control rate) (Echinochloa crusgalli; seedling stage sealing) | Huaidao (rice cultivar) plant damage level (Huaidao (rice cultivar)) | Echinochloa phyllopogon activity level (growth control rate) (Echinochloa phyllopogon; seedling stage sealing) | Echinochloa crusgalli activity level (growth control rate) (Echinochloa crusgalli; [1]) | Huaidao (rice cultivar) plant damage level (growth control rate) (Huaidao (rice cultivar)) | Echinochloa phyllopogon activity level (growth control rate) (Echinochloa phyllopogon; [1]) |
| --- | --- | --- | --- | --- | --- | --- |
| CN1C[C@H](c2cccc(Oc3ccc(F)cn3)c2)[C@@H](C(=O)Nc2cnn(C)c2Cl)C1=O [52′] | 9 | 0 | – | – | – | – |
| CN1C[C@H](c2cc(F)cc(C(F)(F)F)c2)[C@@H](C(=O)Nc2cnn(C)c2Cl)C1=O [67′] | 9 | 1 (Level 1: growth control rate less than 10%) | 8 (Level 8: growth control rate greater than or equal to 90% and less than 100%) | – | – | – |
| Cc1cc([C@H]2CN(C)C(=O)[C@@H]2C(=O)Nc2cnn(C)c2Cl)cc(C(F)(F)F)c1 [69′] | 9 | 1 (Level 1: growth control rate less than 10%) | 9 | – | – | – |
| CC(C)n1ncc(NC(=O)[C@H]2C(=O)N(C)C[C@@H]2c2cccc(C(F)(F)F)c2)c1Cl [97′] | 9 | 0 | 9 | – | – | – |
| CN1C[C@H](c2cccc(C(F)(F)F)c2)[C@@H](C(=O)Nc2cnn(C)c2F)C1=O [119′] | 9 | 0 | 9 | – | – | – |
| COCn1ncc(NC(=O)[C@H]2C(=O)N(C)C[C@@H]2c2cccc(C)c2)c1Cl [127′] | 9 | 0 | 8 (Level 8: growth control rate greater than or equal to 90% and less than 100%) | – | – | – |
| C#CCn1ncc(NC(=O)[C@H]2C(=O)N(C)C[C@@H]2c2cccc(C)c2)c1Cl [132′] | 7 (Level 7: growth control rate greater than or equal to 80% and less than 90%) | 0 | 7 (Level 7: growth control rate greater than or equal to 80% and less than 90%) | – | – | – |
| Cc1cccc([C@H]2CN(C)C(=O)[C@@H]2C(=O)Nc2cnn(C)c2C)c1 [134′] | 7 (Level 7: growth control rate greater than or equal to 80% and less than 90%) | 0 | 7 (Level 7: growth control rate greater than or equal to 80% and less than 90%) | – | – | – |
| Cc1cccc([C@H]2CN(C)C(=O)[C@@H]2C(=O)Nc2cnn(C)c2C(F)(F)F)c1 [136′] | 9 | 0 | 9 | – | – | – |
| C=Cc1c(NC(=O)[C@H]2C(=O)N(C)C[C@@H]2c2cccc(C)c2)cnn1C [137′] | 6 (Level 6: growth control rate greater than or equal to 70% and less than 80%) | 0 | 5 (Level 5: growth control rate greater than or equal to 50% and less than 70%) | – | – | – |
| Cc1cccc([C@H]2CN(C)C(=O)[C@@H]2C(=O)Nc2cnn(C(C)C)c2C2CC2)c1 [138′] | 7 (Level 7: growth control rate greater than or equal to 80% and less than 90%) | 0 | 6 (Level 6: growth control rate greater than or equal to 70% and less than 80%) | – | – | – |
| C=C(C)c1cccc([C@H]2CN(C)C(=O)[C@@H]2C(=O)Nc2cnn(C)c2Cl)c1 [150′] | 6 (Level 6: growth control rate greater than or equal to 70% and less than 80%) | 0 | – | – | – | – |
| CN1C[C@H](c2cccc(C3CC3)c2)[C@@H](C(=O)Nc2cnn(C)c2Cl)C1=O [151′] | – | 0 | 9 | – | – | – |
| CN1C[C@H](c2cccc(C(F)(F)F)c2)[C@@H](C(=O)Nc2cnn(C)c2)C1=O [156′] | 9 | 0 | 7 (Level 7: growth control rate greater than or equal to 80% and less than 90%) | – | – | – |
| C#CCn1ncc(NC(=O)[C@H]2C(=O)N(C)C[C@@H]2c2cccc(C(F)(F)F)c2)c1Cl [163′] | 9 | 0 | 8 (Level 8: growth control rate greater than or equal to 90% and less than 100%) | – | – | – |
| CN1C[C@H](c2cccc(C(F)(F)F)c2)[C@@H](C(=O)Nc2cnn(C)c2C#N)C1=O [187′] | 9 | 0 | 9 | – | – | – |
| Cc1cc(C)cc([C@H]2CN(C)C(=O)[C@@H]2C(=O)Nc2cnn(C(C)(C)C)c2Cl)c1 [267′] | 6 (Level 6: growth control rate greater than or equal to 70% and less than 80%) | 0 | – | – | – | – |
| Cc1cc(C)cc([C@H]2CN(C)C(=O)[C@@H]2C(=O)Nc2cnn(C)c2)c1 [274′] | 7 (Level 7: growth control rate greater than or equal to 80% and less than 90%) | 0 | – | – | – | – |

| Structure (SMILES) | Echinochloa crusgalli activity level (growth control rate) (Echinochloa crusgalli; seedling stage sealing) | Huaidao (rice cultivar) plant damage level (Huaidao (rice cultivar)) | Echinochloa phyllopogon activity level (growth control rate) (Echinochloa phyllopogon; seedling stage sealing) | Echinochloa crusgalli activity level (growth control rate) (Echinochloa crusgalli; [1]) | Huaidao (rice cultivar) plant damage level (growth control rate) (Huaidao (rice cultivar)) | Echinochloa phyllopogon activity level (growth control rate) (Echinochloa phyllopogon; [1]) |
| --- | --- | --- | --- | --- | --- | --- |
| Cc1cc(C)cc([C@H]2CN(C)C(=O)[C@@H]2C(=O)Nc2cnn(C(C)C)c2C2CC2)c1 [278′] | 6 (Level 6: growth control rate greater than or equal to 70% and less than 80%) | 0 | – | – | – | – |
| Cc1cc(C)cc([C@H]2CN(C)C(=O)[C@@H]2C(=O)Nc2cnn(C)c2C2=CCCC2)c1 [280′] | 6 (Level 6: growth control rate greater than or equal to 70% and less than 80%) | 0 | – | – | – | – |
| CCc1cc(C)cc([C@H]2CN(C)C(=O)[C@@H]2C(=O)Nc2cnn(C)c2Cl)c1 [287′] | – | 0 | 9 | – | – | – |
| Cc1cc(C2CC2)cc([C@H]2CN(C)C(=O)[C@@H]2C(=O)Nc2cnn(C)c2Cl)c1 [289′] | – | 0 | 9 | – | – | – |
| Cc1cc(C)cc([C@H]2CN(C)C(=O)[C@@H]2C(=O)N(CC2CC2)c2cnn(C)c2Cl)c1 [367′] | 9 | 1 (Level 1: growth control rate less than 10%) | – | – | – | – |
| Cc1cccc([C@H]2CN(C)C(=O)[C@@H]2C(=O)Nc2cnn(C(C)(C)C)c2Cl)c1 [384′] | 6 (Level 6: growth control rate greater than or equal to 70% and less than 80%) | 0 | – | – | – | – |
| Cc1cc(C)cc([C@H]2CN(C)C(=O)[C@@H]2C(=O)Nc2cnn(C)c2C(F)(F)C(F)(F)F)c1 [428′] | 6 (Level 6: growth control rate greater than or equal to 70% and less than 80%) | 0 | – | – | – | – |
| COc1cc([C@H]2CN(C)C(=O)[C@@H]2C(=O)Nc2cnn(C)c2Cl)cc(OC)c1OC [449′] | – | – | – | 6 (Level 6: growth control rate greater than or equal to 70% and less than 80%) | 0 | – |
| Cc1cccc([C@H]2CN(C)C(=O)[C@@H]2C(=O)Nc2cnn(C(=O)OC(C)(C)C)c2Cl)c1 [463′] | – | – | – | 6 (Level 6: growth control rate greater than or equal to 70% and less than 80%) | 0 | – |
| CN1C[C@H](c2cccc(C(F)(F)F)c2)[C@@H](C(=O)Nc2cnn(C)c2C(N)=O)C1=O [482′] | – | – | – | 9 | 0 | – |
| Cc1cc(C)cc([C@H]2CN(C)C(=O)[C@@H]2C(=O)N(C)c2cnn(C)c2Cl)c1 [490′] | – | – | – | 9 | 0 | – |
| CN1C[C@H](c2cc(Br)cc(C(F)F)c2)[C@@H](C(=O)Nc2cnn(C)c2C2CC2)C1=O [513′] | – | – | – | 9 | 0 | – |
| Cc1cccc([C@H]2CN(C)C(=O)[C@@H]2C(=O)Nc2cnn(C)c2[S+](C)[O-])c1 (stereo partly shown) [530′] | – | – | – | 9 | 0 | – |
| Cc1cc(C)cc([C@H]2CN(C)C(=O)[C@@H]2C(=O)Nc2cnn(C)c2-c2cscn2)c1 [551′] | – | – | – | 9 | 0 | – |
| CN1CC(c2csc3ccccc23)C(C(=O)Nc2cnn(C)c2Cl)C1=O (stereo not shown) [Compound 359] | – | 0 | 7 (Level 7: growth control rate greater than or equal to 80% and less than 90%) | – | – | – |
| CN1CC(c2cccc(C(F)(F)F)c2)C(C(=O)Nc2cnn(C)c2CF)C1=O (stereo not shown) [Compound 477] | – | – | – | 9 | 0 | – |
| Cc1cc(C)cc(C2CN(C)C(=O)C2C(=O)Nc2cnn(C)c2N(C)C)c1 (stereo not shown) [Compound 499] | – | – | – | 8 (Level 8: growth control rate greater than or equal to 90% and less than 100%) | 0 | – |
| CN1CC(c2cc(F)cc(C(F)(F)F)c2)C(C(=O)Nc2cnn(C)c2C(F)(F)F)C1=O (stereo not shown) [Compound 508] | – | – | – | 9 | – | 9 |
